# Laboratory results reported in ChEMBL document CHEMBL1201862, “PubChem BioAssay data set” (2004).
#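 Cultured in 96-well plates, cells were exposed to test compound for 48 hours across five concentrations. At the GI50, growth is halved.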 Activity calls are given as the source filed them. Rule as the data show it: active = GI50 up to about 1.1 µM and inactive = higher.
# Legend:
# Assay in all cases: inhibition of tumour cell growth, NCI panel, 48 h
# UO-31 = system: UO-31
# MDA-MB-231 = system: MDA-MB-231
# NCI-H522 = system: NCI-H522
# U-251 = system: U-251
# BT-549 = system: BT-549
# SF-268 = system: SF-268
# SK-MEL-28 = system: SK-MEL-28
# HT-29 = system: HT-29
# SR = system: SR
# UACC-62 = system: UACC-62
# MDA-N = system: MDA-N
# SK-OV-3 = system: SK-OV-3
# SNB-75 = system: SNB-75
# SF-539 = system: SF-539
# T47D = system: T47D
# OVCAR-5 = system: OVCAR-5
# RXF 393 = system: RXF 393
# TK-10 = system: TK-10
# M14 = system: M14
# IGROV-1 = system: IGROV-1
Compound,GI50 (UO-31),GI50 (MDA-MB-231),GI50 (NCI-H522),GI50 (U-251),GI50 (BT-549),GI50 (SF-268),GI50 (SK-MEL-28),GI50 (HT-29),GI50 (SR),GI50 (UACC-62),GI50 (MDA-N),GI50 (SK-OV-3),GI50 (SNB-75),GI50 (SF-539),GI50 (T47D),GI50 (OVCAR-5),GI50 (RXF 393),GI50 (TK-10),GI50 (M14),GI50 (IGROV-1)
Cn1cnc([N+](=O)[O-])c1Sc1nc(N)nc2c1ncn2[C@H]1C[C@H](O)[C@@H](CO)O1,3.43 µM (inactive),3.36 µM (inactive),2.57 µM (inactive),12 µM (inactive),5.62 µM (inactive),1.77 µM (inactive),14.5 µM (inactive),3.54 µM (inactive),1.07 µM (active),1.51 µM (inactive),4.36 µM (inactive),0.463 µM (active),5.68 µM (inactive),10.2 µM (inactive),7.52 µM (inactive),3.08 µM (inactive),8.32 µM (inactive),3.98 µM (inactive),1.16 µM (inactive),5.13 µM (inactive)
Cc1ccc(C(=N)Nc2ccccc2)cc1,> 100 µM (inactive),> 100 µM (inactive),> 100 µM (inactive),> 100 µM (inactive),> 100 µM (inactive),> 100 µM (inactive),> 100 µM (inactive),69.7 µM (inactive),> 100 µM (inactive),> 100 µM (inactive),> 100 µM (inactive),> 100 µM (inactive),> 100 µM (inactive),> 100 µM (inactive),> 100 µM (inactive),> 100 µM (inactive),> 100 µM (inactive),> 100 µM (inactive),> 100 µM (inactive),> 100 µM (inactive)
C/C(=C/CC[C@]1(CO)CC[C@]2(CO)[C@H](CC[C@@H]3[C@@]4(C)CC[C@H](OC5OCC(O)C(O)C5OC5OC(CO)C(O)C(O)C5O)C(C)(C)[C@@H]4CC[C@]32C)[C@H]1O)CO (stereo not given in full),> 100 µM (inactive),> 100 µM (inactive),> 100 µM (inactive),> 100 µM (inactive),> 100 µM (inactive),> 100 µM (inactive),> 100 µM (inactive),> 100 µM (inactive),> 100 µM (inactive),> 100 µM (inactive),> 100 µM (inactive),> 100 µM (inactive),> 100 µM (inactive),> 100 µM (inactive),> 100 µM (inactive),> 100 µM (inactive),> 100 µM (inactive),> 100 µM (inactive),> 100 µM (inactive),> 100 µM (inactive)
NC1CC(=O)c2c(Cl)sc(Cl)c21 (stereo not given),9.86 µM (inactive),2.19 µM (inactive),1.48 µM (inactive),3.77 µM (inactive),3.76 µM (inactive),15.8 µM (inactive),1.73 µM (inactive),1.72 µM (inactive),0.493 µM (active),2.64 µM (inactive),4.56 µM (inactive),14.4 µM (inactive),14.1 µM (inactive),2.37 µM (inactive),1.74 µM (inactive),19.3 µM (inactive),1.45 µM (inactive),2.43 µM (inactive),3.85 µM (inactive),4.12 µM (inactive)
O=C1c2cccc([N+](=O)[O-])c2C(=O)N1Cc1ccccc1,> 100 µM (inactive),> 100 µM (inactive),> 100 µM (inactive),> 100 µM (inactive),> 100 µM (inactive),> 100 µM (inactive),> 100 µM (inactive),> 100 µM (inactive),> 100 µM (inactive),> 100 µM (inactive),> 100 µM (inactive),> 100 µM (inactive),> 100 µM (inactive),> 100 µM (inactive),> 100 µM (inactive),> 100 µM (inactive),> 100 µM (inactive),> 100 µM (inactive),> 100 µM (inactive),> 100 µM (inactive)
N=C(N)NS(=O)(=O)c1ccc(NC(=O)c2ccc3nc4ccccc4c(Nc4ccc(S(N)(=O)=O)cc4)c3c2)cc1,> 100 µM (inactive),> 100 µM (inactive),> 100 µM (inactive),> 100 µM (inactive),> 100 µM (inactive),> 100 µM (inactive),> 100 µM (inactive),> 100 µM (inactive),> 100 µM (inactive),> 100 µM (inactive),> 100 µM (inactive),> 100 µM (inactive),> 100 µM (inactive),> 100 µM (inactive),> 100 µM (inactive),> 100 µM (inactive),> 100 µM (inactive),> 100 µM (inactive),> 100 µM (inactive),> 100 µM (inactive)
N=C(N)NCC1CCCCCCN1 (stereo not given),> 100 µM (inactive),> 100 µM (inactive),> 100 µM (inactive),> 100 µM (inactive),> 100 µM (inactive),> 100 µM (inactive),> 100 µM (inactive),> 100 µM (inactive),> 100 µM (inactive),> 100 µM (inactive),> 100 µM (inactive),> 100 µM (inactive),> 100 µM (inactive),> 100 µM (inactive),> 100 µM (inactive),> 100 µM (inactive),> 100 µM (inactive),> 100 µM (inactive),> 100 µM (inactive),> 100 µM (inactive)
CCCCCCCCCCCC[S+](C)C,10.1 µM (inactive),0.0124 µM (active),3.7 µM (inactive),5.25 µM (inactive),2.19 µM (inactive),6.68 µM (inactive),10.5 µM (inactive),3.41 µM (inactive),8.69 µM (inactive),6.4 µM (inactive),1.23 µM (inactive),8.49 µM (inactive),5.68 µM (inactive),6.24 µM (inactive),0.516 µM (active),8.43 µM (inactive),2.07 µM (inactive),3.15 µM (inactive),5.14 µM (inactive),2 µM (inactive)
O=S(=O)(O)c1ccc(/N=N/c2c(O)ccc3ccccc23)cc1,> 100 µM (inactive),> 100 µM (inactive),> 100 µM (inactive),> 100 µM (inactive),> 100 µM (inactive),> 100 µM (inactive),> 100 µM (inactive),> 100 µM (inactive),> 100 µM (inactive),> 100 µM (inactive),> 100 µM (inactive),> 100 µM (inactive),> 100 µM (inactive),> 100 µM (inactive),> 100 µM (inactive),> 100 µM (inactive),> 100 µM (inactive),> 100 µM (inactive),> 100 µM (inactive),> 100 µM (inactive)
N=C(N)NC(CC(=O)O)c1ccccc1 (stereo not given),> 100 µM (inactive),> 100 µM (inactive),> 100 µM (inactive),> 100 µM (inactive),> 100 µM (inactive),> 100 µM (inactive),> 100 µM (inactive),> 100 µM (inactive),> 100 µM (inactive),> 100 µM (inactive),> 100 µM (inactive),> 100 µM (inactive),> 100 µM (inactive),> 100 µM (inactive),> 100 µM (inactive),> 100 µM (inactive),> 100 µM (inactive),> 100 µM (inactive),> 100 µM (inactive),> 100 µM (inactive)
CCc1nc(N)nc(N)c1-c1ccc(Cl)c(/N=N/N(C)C)c1,18.4 µM (inactive),48.8 µM (inactive),27.7 µM (inactive),34.5 µM (inactive),30.1 µM (inactive),49.2 µM (inactive),29.1 µM (inactive),18.7 µM (inactive),19.1 µM (inactive),24.9 µM (inactive),36 µM (inactive),> 89.3 µM (inactive),61 µM (inactive),23.1 µM (inactive),39.7 µM (inactive),> 82 µM (inactive),41.4 µM (inactive),> 100 µM (inactive),22.5 µM (inactive),24.1 µM (inactive)
